The values that follow come from patent US20040137472A1, “Methods and compositions for modification of splicing of pre-mRNA” (priority 2002, published 2004).

What all share (type): cell-based, human
Assay [1] concerns IVS2-705U EGFP cells. As to the kind of experiment: EGFP fluorescence screen by fluorescence microscopy, IVS2-705U EGFP HeLa cells. Details: key: Compounds causing moderate to high levels of fluorescence with no autofluorescence of the compound itself are indicated by a (+) sign; A (+/−) indicates compounds causing faint levels of fluorescence or compounds that have some autofluorescence in addition to causing the cells to fluoresce; A (−) sign indicates that the compounds did not cause detectable levels of fluorescence. Conditions: 50 μM compound, 24 hours, detected by eye. On the procedure: The screen was carried out using HeLa cell lines stably transfected with an EGFP (enhanced green fluorescent protein) construct. This construct contains the EGFP cDNA disrupted by intron 2 of the β-globin gene, containing thalassemic mutations (FIG. 1), and was under the control of the CMV promoter. Two different cell lines were generated with this construct, one with a mutation at position 654 (IVS2-654 EGFP) and another with a mutation at position 705 (IVS2-705U EGFP).
For both constructs, disruption of EGFP with mutated intron 2 results in a lack of production of a functional EGFP protein. When correct splicing is restored to a cell, intron 2 is excised and functional EGFP protein is generated (Sazani (2001) Nucl. Acids Res. 29:3965-3974).
Cells were plated in black well, clear bottom 96-well plates at 13×10^4 cells/ml, 100 μl per well. The rows on the ends of the plate (rows 1 and 12) were control rows and the remaining rows were treated with compounds. In the control rows, positive control EGFP cells were alternated with untreated cells serving as negative controls. […]
Twenty-four hours after treatment, the medium was removed and the cells were washed 2 times in 150 μl 1× PBS. […] Cells were then examined on an Olympus inverted fluorescence microscope at 10× or 20× using a FITC filter. Fluorescence was detected by eye. Attempts to utilize a fluorescence plate reader failed as the plate reader was not sensitive enough to detect the expected low levels of EGFP fluorescence.
The criteria used to designate a compound as a positive were as follows. […] Additionally, the fluorescence had to be mostly uniform throughout all of the cells. This criterion was complicated by the fact that many of the compounds had varying levels of autofluorescence, and therefore were difficult to distinguish from those that caused cellular fluorescence. […]
The IVS2-705U and IVS2-654 EGFP cell lines were treated a second time with the 132 positive compounds and analyzed on a fluorescence microscope. […]

The next assay deals with IVS2-705 β-globin cells. As to the kind of experiment: RT-PCR analysis of splicing correction, IVS2-705 β-globin cells. Conditions: 50 μM compound. Details: key: Compounds causing correction by RT-PCR. are indicated by a (+) sign. From the text: β-globin cell lines were obtained by stable transfection of HeLa cells with the human β-globin gene carrying thalassemic mutations at either IVS2-654 or IVS2-705. The cloned genes were under the control of the immediate early cytomegalovirus promoter (Sierakowska, et al., (1996) Proc. Natl. Acad. Sci. USA 93:12840-12844). The IVS2-654 EGFP cell line is well known in the art (Sazani (2001) Nucl. Acids Res. 29:3965-3974). The IVS2-705U EGFP cell line was made in the same manner using a different plasmid. HeLa cells were grown in SMEM with 5% horse serum, 5% fetal calf serum, 1% L-glutamine and 1% gentamicin/kanamycin.
(§1) A RT-PCR-based assay was performed to determine if the fluorescence observed on the EGFP cells was a result of the compounds shifting splicing. […] Therefore, primers located in exons 2 and 3 are used to PCR amplify the products, and the size difference is detected by running the products on an acrylamide gel.
After the IVS2-705U and IVS2-654 EGFP cells were re-treated with positive compounds and examined on the microscope, total RNA was isolated using TRI-REAGENT® (Molecular Research Center, Inc., Cincinnati, Ohio). A total of 200 ng of RNA was analyzed by reverse transcription polymerase chain reaction (RT-PCR) using rTth DNA polymerase (Perkin-Elmer, Boston, Mass.) according to manufacturer's instructions. […]

Assay [2] deals with IVS2-705U EGFP cells. The experiment in a line: RT-PCR analysis of splicing correction, IVS2-705U EGFP cells. Details: key: Compounds causing correction by RT-PCR. are indicated by a (+) sign. Conditions: 50 μM compound. As for the experimental part: as §1
After the IVS2-705U and IVS2-654 EGFP cells were re-treated with positive compounds and examined on the microscope, total RNA was isolated using TRI-REAGENT® (Molecular Research Center, Inc., Cincinnati, Ohio). A total of 200 ng of RNA was analyzed by reverse transcription polymerase chain reaction (RT-PCR) using rTth DNA polymerase (Perkin-Elmer, Boston, Mass.) according to manufacturer's instructions. The reverse transcription step was carried out at 70° C. for 15 minutes. The PCR step included 1 cycle, 95° C., 3 minutes: 18 cycles. 95° C., 1 minute, 65° C., 1 minute. For β-globin mRNA amplification, the reverse primer spanned positions 6-28 of exon 3 and the forward primer spanned positions 21-43 of exon 2 of the human β-globin gene. […]
FIG. 3 provides an example of a polyacrylamide gel with RT-PCR products from EGFP cells treated with several positive compounds. The amount of correction was determined by comparing the ratio of the aberrant band and the correct band.

With `CCOc1cccc(CN2CCN(c3ccc(F)cc3)CC2)c1O` [AA11], the “705U EGFP Fluorescence” value in the assay on IVS2-705U EGFP cells [1] is “−”. Moreover, in the assay on IVS2-705 β-globin cells, the “705 β-globin RT-PCR” value is given as “+”.

Turning to `CC(C)(C)c1ccc(C(=O)NNC(=O)Cc2ccc(-c3ccccc3)cc2)cc1` [Compound E11], the “705U EGFP Fluorescence” value in the assay with IVS2-705U EGFP cells [1] is recorded as “−”. In the assay with IVS2-705 β-globin cells, the “705 β-globin RT-PCR” value is “+”. For the same molecule, the “705U EGFP RT-PCR” value in the assay on IVS2-705U EGFP cells [2] was “+”.

For `COc1ccc(CCN(C)Cc2cc(OC)c(OC)cc2Br)cc1OC` [Compound A5], the “705U EGFP Fluorescence” value with IVS2-705U EGFP cells [1] is recorded as “+/−”.
